Legend:
RAW 264.7 cells = assay: Pro-inflammatory cytokine mRNA expression (RT-PCR) in LPS-stimulated macrophages; assay type: cell-based, murine
Experimental: RAW246.7 cells were exposed to LPS either alone or in combination with either pooled human milk oligosaccharides (HMOs), or 3′-sialyllactose (3′SL) or 2′-fucosyllactose (2′FL). After 6 hours, IL-6 (A) and IL-1β (B) mRNA levels were measured by RT-PCR and are plotted as mean±standard deviation (n=8) relative the respective mRNA levels in cells that were exposed to LPS alone (**p<0.01; ***p<0.001). HMOs are a group of more than 150 different structurally distinct oligosaccharides and their composition follows a basic structural blueprint (C), containing five monosaccharide building blocks: glucose (dark gray circle), galactose (light gray circle), N-acetylglucosamine (dark gray square), fucose (gray triangle) and sialic acid (gray diamond). 3′SL contains lactose with sialic acid at the terminal end; 2′FL contains lactose with fucose at the terminal end.
HMOs were first isolated and purified from pooled human donor milk (pHMO) by using polymixin B affinity chromatography to remove any lipopolysaccharide (LPS) contamination. RAW 264.7 cells, a murine macrophage cell line, were then incubated with LPS (10 ng/mL) and pHMO (500 μg/mL) for 6 hours. RT-PCR was used to measure cytokine mRNA expression.
A multi-dimensional chromatography approach was used that separates pHMO first by charge and then by size. […]

[1] = tested on: bone marrow derived macrophages; assay: Pro-inflammatory cytokine expression in primary mouse cells; assay type: cell-based
Description: (§1) Accordingly, the results with 3′SL translate to primary cells as well as to human macrophages.

[2] = tested on: THP-1 monocytic cell line; assay: Pro-inflammatory cytokine expression in human monocytic cell line; assay type: cell-based; settings: human THP-1
Description: as §1

[3] = tested on: collagen antibody-induced arthritis (CAIA) model; assay: Collagen antibody-induced arthritis (CAIA) model; assay type: in vivo, BALB/c mice
Experimental: Macrophages and the pro-inflammatory cytokines IL-6 and IL-1β are known to perform a major role in the development and progression of joint destruction in animal models and patients with RA. […] Next, it was asked whether or not the in vitro results translate to an in vivo model. 3′SL efficacy in a collagen antibody-induced arthritis (CAIA) model was tested in mice. In the CAIA model, arthritis is induced by systemic administration of a cocktail of monoclonal antibodies that target various regions of collagen type II, which is one of the major constituents of articular cartilage matrix proteins, followed by the administration of endotoxin (LPS) on day 3. The high uptake rate in the CAIA model and the capacity to synchronize the development of arthritis from the time of antibody injection, makes this a relatively straightforward model that is used to address questions of pathogenic mechanisms and to screen candidate therapeutic agents.
8-week old female BALB/c mice were injected with 1.5 mg of Arthrogen-CIA monoclonal antibody cocktail (Chondrex, Inc.). Three days later, the mice were injected with 25 μg of LPS. Beginning with the time of LPS administration and followed for the next 11 consecutive days, mice were orally gavaged thrice daily with either 3′SL (20 mg in saline) or saline alone as control. With the tester blinded to the study groups, arthritis in each limb was determined once per day. […] By adding together, the scores of all four limbs, the maximum score per mouse is 28. In addition, a caliper was placed across the ankle joint at the widest point to measure ankle thickness in both hind limbs daily. 14 days after antibody cocktail administration, mice were euthanized and hind paws collected and processed for histology. H&E—as well as Toluidine blue-stained sections were scored from 0 to 4 for inflammation, bone erosion and cartilage depletion based on a previously validated scoring system.

[4] = hind paws, day 14, score 0 to 4, oral 20 mg thrice daily
[5] = oral gavage 20 mg in saline thrice daily, from LPS administration, vs saline

**Q.** Which results are given for `CC(=O)N[C@H]1[C@H]([C@H](O)[C@H](O)CO)O[C@@](O[C@H]2[C@@H](O)[C@@H](CO)O[C@@H](O[C@H]3[C@H](O)[C@@H](O)C(O)O[C@@H]3CO)[C@@H]2O)(C(=O)O)C[C@@H]1O` (stereo partly shown) [3′SL, 3′-sialyllactose]?
**A.** IL-6 and IL-1β mRNA expression (RAW 264.7 cells; LPS-activated macrophages, individual oligosaccharides): most effective in reducing; IC50 (reducing IL-6 and IL-1β mRNA expression) (RAW 264.7 cells; dose-range finding studies): around 15 μg/mL; pro-inflammatory cytokine expression [1]: reduced; pro-inflammatory cytokine expression [2]: reduced; adverse effects ([3]; 14-day study period, oral 20 mg thrice daily): No adverse effects were observed; histology score for cartilage damage [3, 4]: significantly lower; histology score for erosion [3, 4]: significantly lower; histology score for inflammation [3, 4]: significantly lower; Baseline-corrected ankle thickness (paw swelling) [3, 5]: significantly reduced; clinical index score 28 [3, 5]: significantly reduced
